In article PMC8867915, “Amyloid and Hydrogel Formation of a Peptide Sequence from a Coronavirus Spike Protein” (ACS Nano, 2022):

Columns and labels:
[1] = Hydrogel formation (tube inversion) as a function of pH; type: physicochemical; details: 1 wt % peptide in aqueous NaOH; cloudy gel, does not flow under tube inversion; liquid at the other pH values studied (pH 3-12)
From the text: Peptide […] is able to form a hydrogel under precisely defined conditions. […] The apple-green birefringence of the peptide gel stained with Congo red (Figure 6b) together with TEM images (Figure 6c) reveal that the hydrogel comprises a tight network of 20–50 nm wide peptide nanotapes. The viscoelastic response of the gel was studied by rheology. The linear regime was first identified by strain sweep experiments (Figure S5). The elastic modulus G′ > G′′ (the shear loss modulus) and G′ is weakly dependent on frequency and reaches a value >10^5 Pa at a high frequency (ω = 100 rad s^–1). These are all characteristic rheological signatures of gels, and the high frequency value of G′ is higher than that observed for many peptide hydrogels.[48] The FTIR spectrum shown in Figure 6e is very similar to that discussed for the solutions of 1 wt % […] at pH 4 and 5 and is consistent with a β-sheet secondary structure. The SAXS data was again fitted using a model form factor of Gaussian bilayers (Figure 6f). […]
Peptide […] was supplied by Peptide Synthetics (Peptide Protein Research Limited), Fareham, UK as a TFA salt. The molar mass by electrospray mass spectrometry is 1405.595 g mol^–1 and the purity is >95%, determined by high performance liquid chromatography (HPLC) in a gradient HPLC using an acetonitrile (0.1% TFA)/water (0.1% TFA) gradient with a Kinetex 2.6u XB-C18 100A column. […]

[2] = Rheology of peptide gel (frequency sweep of shear moduli); type: physicochemical; details: 1 wt % peptide gel at pH 4.4; cone and plate; constant stress 30 Pa; ω = 100 rad s^–1
From the text: Peptide […] is able to form a hydrogel under precisely defined conditions. […] The apple-green birefringence of the peptide gel stained with Congo red (Figure 6b) together with TEM images (Figure 6c) reveal that the hydrogel comprises a tight network of 20–50 nm wide peptide nanotapes. The viscoelastic response of the gel was studied by rheology. The linear regime was first identified by strain sweep experiments (Figure S5). The elastic modulus G′ > G′′ (the shear loss modulus) and G′ is weakly dependent on frequency and reaches a value >10^5 Pa at a high frequency (ω = 100 rad s^–1). These are all characteristic rheological signatures of gels, and the high frequency value of G′ is higher than that observed for many peptide hydrogels.[48] The FTIR spectrum shown in Figure 6e is very similar to that discussed for the solutions of 1 wt % […] at pH 4 and 5 and is consistent with a β-sheet secondary structure. The SAXS data was again fitted using a model form factor of Gaussian bilayers (Figure 6f). The XRD data is characterized by strong diffraction peaks at 10 and 4.7 Å, consistent with an amyloid cross-β diffraction pattern.[12],[49]−[51] The other weaker peaks can also be ascribed to β-sheet features.[49],[52]−[57]
Dynamic shear moduli were measured using a controlled stress AR-2000 rheometer from TA Instruments. […]

For RSAIEDLLFDKV, the “pH at which hydrogel formation is observed” value [1] was 4.4 pH and the “shear elastic modulus G′ at high frequency” value [2] was > 10^5 Pa.
